In patent US20220119354A1, “DIAMINO-SUBSTITUTED PYRIDINES AND PYRIMIDINES AS HERBICIDES” (FMC Corporation, priority 2019, published 2022):

How the values were obtained:
Type in all cases: in vivo
[1] = system: barnyardgrass (Echinochloa crus-galli); test: Test A preemergence, barnyardgrass; details: 0 to 100 scale
Source text: (§1) Seeds of plant species selected from barnyardgrass (Echinochloa crus-galli), kochia (Kochia scoparia), ragweed (common ragweed, Ambrosia elatior), ryegrass, Italian (Lolium multiflorum), foxtail, giant (Setaria faberii), foxtail, green (Setaria viridis), and pigweed (Amaranthus retroflexus) were planted into a blend of loam soil and sand and treated preemergence with a directed soil spray using test chemicals formulated in a non-phytotoxic solvent mixture which included a surfactant.
(§2) At the same time, plants selected from these weed species and also wheat (Triticum aestivum), corn (Zea mays), blackgrass (Alopecurus myosuroides), and galium (catchweed bedstraw, Galium aparine) were planted in pots containing the same blend of loam soil and sand and treated with postemergence applications of test chemicals formulated in the same manner. Plants ranged in height from 2 to 10 cm and were in the one- to two-leaf stage for the postemergence treatment. Treated plants and untreated controls were maintained in a greenhouse for approximately 10 d, after which time all treated plants were compared to untreated controls and visually evaluated for injury. Plant response ratings, summarized in Table A, are based on a 0 to 100 scale where 0 is no effect and 100 is complete control. A dash (-) response means no test result.

kochia (Kochia scoparia) [2] = test: Test A preemergence, kochia; details: 0 to 100 scale
Source text: as §1, §2

[3] = system: ryegrass, Italian (Lolium multiflorum); test: Test A preemergence, Italian ryegrass; details: 0 to 100 scale
Source text: as §1, §2

[4] = system: foxtail, giant (Setaria faberii); test: Test A preemergence, giant foxtail; details: 0 to 100 scale
Source text: as §1, §2

[5] = system: pigweed (Amaranthus retroflexus); test: Test A preemergence, pigweed; details: 0 to 100 scale
Source text: as §1, §2

[6] = system: barnyardgrass (Echinochloa crus-galli); test: Test A postemergence, barnyardgrass; details: 0 to 100 scale
Source text: as §1, §2

kochia (Kochia scoparia) [7] = test: Test A postemergence, kochia; details: 0 to 100 scale
Source text: as §1, §2

[8] = system: ragweed (common ragweed, Ambrosia elatior); test: Test A postemergence, ragweed; details: 0 to 100 scale
Source text: as §1, §2

[9] = system: ryegrass, Italian (Lolium multiflorum); test: Test A postemergence, Italian ryegrass; details: 0 to 100 scale
Source text: as §1, §2

[10] = system: foxtail, giant (Setaria faberii); test: Test A postemergence, giant foxtail; details: 0 to 100 scale
Source text: as §1, §2

[11] = system: pigweed (Amaranthus retroflexus); test: Test A postemergence, pigweed; details: 0 to 100 scale
Source text: as §1, §2

[12] = system: wheat (Triticum aestivum); test: Test A postemergence, wheat; details: 0 to 100 scale
Source text: as §1, §2

corn (Zea mays) = test: Test A postemergence, corn; details: 0 to 100 scale
Source text: as §1, §2

[13] = system: blackgrass (Alopecurus myosuroides); test: Test A postemergence, blackgrass; details: 0 to 100 scale
Source text: as §1, §2

[14] = system: galium (catchweed bedstraw, Galium aparine); test: Test A postemergence, galium; details: 0 to 100 scale
Source text: as §1, §2

rice (Oryza sativa) = test: Test B flooded paddy test, rice; details: Flood, 250 g ai/ha, applied to paddy water, 2-leaf stage, visual evaluation after 13 to 15 d
Description: (§3) Plant species in the flooded paddy test selected from rice (Oryza sativa), sedge, umbrella (small-flower umbrella sedge, Cyperus difformis), ducksalad (Heteranthera limosa), and barnyardgrass (Echinochloa crus-galli) were grown to the 2-leaf stage for testing. At the time of treatment, test pots were flooded to 3 cm above the soil surface, treated by application of test compounds directly to the paddy water, and then maintained at that water depth for the duration of the test. Treated plants and controls were maintained in a greenhouse for 13 to 15 d, after which time all species were compared to controls and visually evaluated. Plant response ratings, summarized in Table B, are based on a scale of 0 to 100 where 0 is no effect and 100 is complete control. A dash (-) response means no test result.

[15] = system: sedge, umbrella (small-flower umbrella sedge, Cyperus difformis); test: Test B flooded paddy test, umbrella sedge; details: Flood, 250 g ai/ha, applied to paddy water, 2-leaf stage, visual evaluation after 13 to 15 d
Description: as §3

[16] = system: ducksalad (Heteranthera limosa); test: Test B flooded paddy test, ducksalad; details: Flood, 250 g ai/ha, applied to paddy water, 2-leaf stage, visual evaluation after 13 to 15 d
Description: as §3

[17] = system: barnyardgrass (Echinochloa crus-galli); test: Test B flooded paddy test, barnyardgrass; details: Flood, 250 g ai/ha, applied to paddy water, 2-leaf stage, visual evaluation after 13 to 15 d
Description: as §3

[18] = 125 g ai/ha, 0 is no effect, 100 is complete control

CC(Nc1ncc(C(F)(F)F)c(N)n1)c1cc2ccccc2s1 (racemic) [Compound 16]
Plant response rating, Barnyardgrass ([1]; 125 g ai/ha): 70
Plant response rating, Barnyardgrass ([1]; 500 g ai/ha): 100
Plant response rating, Kochia (kochia (Kochia scoparia) [2]; 125 g ai/ha): 70
Plant response rating, Kochia (kochia (Kochia scoparia) [2]; 500 g ai/ha): 100
Plant response rating, Ryegrass, Italian ([3]; 125 g ai/ha): 0
Plant response rating, Ryegrass, Italian ([3]; 500 g ai/ha): 10
Plant response rating, Foxtail, Giant ([4]; 125 g ai/ha): 50
Plant response rating, Foxtail, Giant ([4]; 500 g ai/ha): 100
Plant response rating, Pigweed ([5]; 125 g ai/ha): 90
Plant response rating, Pigweed ([5]; 500 g ai/ha): 100
Plant response rating, Barnyardgrass ([6]; 125 g ai/ha): 30
Plant response rating, Barnyardgrass ([6]; 500 g ai/ha): 60
Plant response rating, Kochia (kochia (Kochia scoparia) [7]; 125 g ai/ha): 70
Plant response rating, Kochia (kochia (Kochia scoparia) [7]; 500 g ai/ha): 80
Plant response rating, Ragweed ([8]; 125 g ai/ha): 0
Plant response rating, Ragweed ([8]; 500 g ai/ha): 80
Plant response rating, Ryegrass, Italian ([9]; 125 g ai/ha): 0
Plant response rating, Ryegrass, Italian ([9]; 500 g ai/ha): 40
Plant response rating, Foxtail, Giant ([10]; 125 g ai/ha): 20
Plant response rating, Foxtail, Giant ([10]; 500 g ai/ha): 90
Plant response rating, Pigweed ([11]; 125 g ai/ha): 90
Plant response rating, Pigweed ([11]; 500 g ai/ha): 100
Plant response rating, Wheat ([12]; 125 g ai/ha): 0
Plant response rating, Wheat ([12]; 500 g ai/ha): 0
Plant response rating, Corn (corn (Zea mays); 125 g ai/ha): 0
Plant response rating, Corn (corn (Zea mays); 500 g ai/ha): 20
Plant response rating, Blackgrass ([13]; 125 g ai/ha): 10
Plant response rating, Blackgrass ([13]; 500 g ai/ha): 30
Plant response rating, Galium ([14]; 125 g ai/ha): 60
Plant response rating, Galium ([14]; 500 g ai/ha): 80
Plant response rating, Rice (0 to 100 scale, 0 is no effect, 100 is complete control) (rice (Oryza sativa)): 0
Plant response rating, Sedge, Umbrella (0 to 100 scale, 0 is no effect, 100 is complete control) [15]: 95
Plant response rating, Ducksalad (0 to 100 scale, 0 is no effect, 100 is complete control) [16]: 15
Plant response rating, Barnyardgrass (0 to 100 scale, 0 is no effect, 100 is complete control) [17]: 50

Cc1cc(OCC(C)Nc2ncc(C(F)(F)F)c(N)n2)ccc1F (stereo not drawn) [Compound 38]
Barnyardgrass plant response rating [1, 18]: 30
Plant response rating, Barnyardgrass ([1]; 500 g ai/ha): 90
Kochia plant response rating (kochia (Kochia scoparia) [2]; [18]): 0
Plant response rating, Kochia (kochia (Kochia scoparia) [2]; 500 g ai/ha): 60
Foxtail, Giant plant response rating [4, 18]: 20
Plant response rating, Foxtail, Giant ([4]; 500 g ai/ha): 90
Pigweed plant response rating [5, 18]: 50
Plant response rating, Pigweed ([5]; 500 g ai/ha): 90
Plant response rating, Barnyardgrass ([6]; 125 g ai/ha): 0
Plant response rating, Barnyardgrass ([6]; 500 g ai/ha): 0
Plant response rating, Kochia (kochia (Kochia scoparia) [7]; 125 g ai/ha): 0
Plant response rating, Kochia (kochia (Kochia scoparia) [7]; 500 g ai/ha): 30
Plant response rating, Ragweed ([8]; 125 g ai/ha): 0
Plant response rating, Ragweed ([8]; 500 g ai/ha): 0
Plant response rating, Ryegrass, Italian ([9]; 125 g ai/ha): 0
Plant response rating, Ryegrass, Italian ([9]; 500 g ai/ha): 0
Plant response rating, Foxtail, Giant ([10]; 125 g ai/ha): 0
Plant response rating, Foxtail, Giant ([10]; 500 g ai/ha): 0
Plant response rating, Pigweed ([11]; 125 g ai/ha): 20
Plant response rating, Pigweed ([11]; 500 g ai/ha): 80
Plant response rating, Wheat ([12]; 125 g ai/ha): 0
Plant response rating, Wheat ([12]; 500 g ai/ha): 0
Plant response rating, Corn (corn (Zea mays); 125 g ai/ha): 0
Plant response rating, Corn (corn (Zea mays); 500 g ai/ha): 0
Plant response rating, Blackgrass ([13]; 125 g ai/ha): 0
Plant response rating, Blackgrass ([13]; 500 g ai/ha): 0
Plant response rating, Galium ([14]; 125 g ai/ha): 30
Plant response rating, Galium ([14]; 500 g ai/ha): 70
Plant response rating, Rice (0 to 100 scale, 0 is no effect, 100 is complete control) (rice (Oryza sativa)): 0
Plant response rating, Sedge, Umbrella (0 to 100 scale, 0 is no effect, 100 is complete control) [15]: 0
Plant response rating, Ducksalad (0 to 100 scale, 0 is no effect, 100 is complete control) [16]: 0
Plant response rating, Barnyardgrass (0 to 100 scale, 0 is no effect, 100 is complete control) [17]: 0
